Test results: patent publication US10226449B2, “Heterocyclic modulators of lipid synthesis and combinations thereof” (priority 2013, dated 2019)
Read-outs that look alike come from different tables or passages of the source.

Legend:
[1] = mouse, in vivo
Method: (§1) The day of tumor cell inoculation is denoted as day 0. Drug treatment was initiated when the mean tumor size reached 149 mm^3 (day 15). […] Mice were assigned into treatment groups using a randomized block design based upon their tumor volumes. […] Tumor sizes were measured twice weekly in two dimensions using a caliper, and the volumes were expressed in mm^3 using the formula: V=0.5 a×b2 where a and b were the long and short diameters of the tumor, respectively. The study was terminated 6 hours post the 18th Qd dose on day 32 after tumor inoculation. Tumor growth inhibition (TGI) was calculated as the percentage of tumor growth, relative to tumor size at the start of treatment, in drug-treated groups compared to vehicle-treated groups. The Mann-Whitney U test was used to assess statistical significance of the mean tumor size between drug and vehicle-treated groups.

[2] = Tolerability in the single agent PANC-1 xenograft study; conditions: 30/20 mg/kg Q5d; 18-day study; PANC-1 xenograft mice, 10 per group
Method: as §1

[3] = tested on: HCV1b replicon; test: HCV1b replicon antiviral assay (luciferase reporter); format: cell-based; conditions: Hepatitis C virus; HCV genotype 1b replicon; read-out: HCV GT1b EC50
Method: The antiviral activities of the compounds were assessed using the HCV1b replicon system. […] HCV RNA replicon levels were assessed using the Bright-Glo™ Luciferase Assay System (Promega) to measure replicon-derived Luc activity.

[4] = tested on: CALU-6 xenograft tumors; test: CALU-6 lung xenograft tumor growth inhibition with paclitaxel; format: in vivo, BALB/c-nude mice; conditions: for TGI vs. Vehicle: day 21 post treatment start
Method: (§2) The day of tumor cell inoculation is denoted as day 0. After inoculation, the animals were checked daily for morbidity and mortality. At the time of routine monitoring, the animals were checked for any effects of tumor growth and treatments on normal behavior such as mobility, visual estimation of food and water consumption, body weight gain/loss (body weights were measured twice weekly), eye/hair matting and any other abnormal signs. […] Mice were assigned into treatment groups using a randomized block design based upon their tumor volumes. […] Tumor sizes were measured twice weekly in two dimensions using a caliper, and the volumes were expressed in mm^3 using the formula: V=0.5*(a*b^2) where a and b were the long and short diameters of the tumor, respectively. The study was terminated 6 hours post the last dose 17-28 days after treatment initiation. Tumor growth inhibition (TGI) was calculated as the percentage of tumor growth, relative to tumor size at the start of treatment, in drug-treated groups compared to vehicle-treated groups. The Mann-Whitney U test was used to assess statistical significance of the mean tumor size between drug and vehicle-treated groups
The study was terminated 21 days after initiation of treatment.

[5] = tested on: OVCAR-8 xenograft tumors; test: OVCAR-8 ovarian xenograft tumor growth inhibition with paclitaxel; format: in vivo, BALB/c-nude mice; conditions: day 21 post treatment start
Method: as §2
The study was terminated 28 days after initiation of treatment.

[6] = tested on: PANC-1 xenograft tumors; test: PANC-1 pancreatic xenograft tumor growth inhibition with gemcitabine; format: in vivo, BALB/c-nude mice
Method: as §2

[7] = mouse, in vivo; remark: listed apart in the source
Method: as §2

[8] = mouse, in vivo; remark: listed apart in the source
Method: as §2

[9] = mouse, in vivo; remark: listed apart in the source
Method: as §2

[10] = tested on: COLO-205 xenograft tumors; test: COLO-205 colon xenograft tumor growth inhibition with irinotecan
Method: as §2

[11] = irinotecan 10 mg/kg ip Q4d, single agent

With `C=C1C(=O)O[C@@H](CCCCCCCC)[C@@H]1C(=O)O` (relative stereo) [Compound C75, trans-4-methylene-2-octyl-5-oxotetrahydrofuran-3-carboxylic acid] the “tolerability in PANC-1 xenograft tumor-bearing mice” value [1] was “drug-induced weight loss and toxicity” and the “mice died from drug-related toxicity” value [2] was “Six of the ten mice in the C75 treatment group died”.

Compound `CCN(CC)c1cc(C)c(C(=O)N2CCC(c3ccc(C#N)cc3)CC2)cc1-c1nnc(C)[nH]1` [Compound 129, 4-(1-(4-(diethylamino)-2-methyl-5-(5-methyl-4H-1,2,4-triazol-3-yl)benzoyl)piperidin-4-yl)benzonitrile] has an EC50 [3] of 2.15 µM.

`Cc1cc(C)c(-c2[nH]c(C3CCOCC3)nc2C)cc1C(=O)N1CC(F)(c2ccc(C#N)cc2)C1` [Compound 167, 4-(1-(2,4-Dimethyl-5-(4-methyl-2-(tetrahydro-2H-pyran-4-yl)-1H-imidazol-5-yl)benzoyl)-3-fluoroazetidin-3-yl)benzonitrile] gave an EC50 [3] of 0.025 µM.

For `Cc1cc(C)c(-c2[nH]nc(C)c2C)cc1C(=O)N1CC(c2ccc(C#N)cc2)C1` [Compound 242, 4-(1-(5-(3,4-Dimethyl-1H-pyrazol-5-yl)-2,4-dimethylbenzoyl)azetidin-3-yl)benzonitrile], the “TGI vs. Vehicle” value ([4]; Compound 242 60 mg/kg po Qd) was 14%, the “TGI vs. Vehicle” value ([4]; Compound 242 100 mg/kg po Qd) was 0% and the “tumor growth inhibition, range over dose groups” value ([4]; Compound 242 single agent at 30, 60, or 100 mg/kg once daily for 21 days) was 0-19%. For the same compound, the “TGI vs. Vehicle” value ([5]; Compound 242 30 mg/kg po Qd) was 46%, the “TGI vs. Vehicle” value ([5]; Compound 242 100 mg/kg po Qd) was 74% and the “TGI vs. Vehicle” value ([6]; Compound 242 30 mg/kg po Qd for 18 days) was 9%. For the same compound, the “tolerability in CALU-6 xenograft tumor-bearing mice” value [7] was “well tolerated as a single or combination agent”, the “tolerability in OVCAR-8 xenograft tumor-bearing mice” value [8] was “well tolerated as a single or combination agent” and the “tolerability in PANC-1 xenograft tumor-bearing mice” value [9] was “well tolerated as a single or combination agent”. For the same compound, the “Body Weight Change” value (mouse, in vivo, po, 100 mg/kg) was −12.0% and the “TGI vs. Vehicle” value ([10]; Compound 242 30 mg/kg po Qd for 20 days) was 6%.

Work on `Cc1ccc(C(=O)N2CCC(c3ccc(C#N)cc3)CC2)cc1-c1[nH]nc(Cl)c1C` [Compound 253, 4-(1-(3-(3-Chloro-4-methyl-1H-pyrazol-5-yl)-4-methylbenzoyl)piperidin-4-yl)benzonitrile] yielded an EC50 [3] of 0.22 µM.

In the case of `Nc1ccn([C@@H]2O[C@H](CO)[C@@H](O)C2(F)F)c(=O)n1` [Gemcitabine, gemcitabine, reference compound], the “TGI vs. Vehicle” value ([6]; gemcitabine 10 mg/kg ip, single agent) is reported as 31%.

With `CCc1c2c(nc3ccc(OC(=O)N4CCC(N5CCCCC5)CC4)cc13)-c1cc3c(c(=O)n1C2)COC(=O)[C@]3(O)CC` [Irinotecan, irinotecan, reference compound] the “Body Weight Change” value [11] was −10.2%, the body weight loss (single agent irinotecan group, 10 mg/kg Q4d) was 10.2% and the “TGI vs. Vehicle” value [10, 11] was 57%.

With `CC(=O)O[C@H]1C(=O)[C@@]2(C)[C@H]([C@H](OC(=O)c3ccccc3)[C@]3(O)C[C@H](OC(=O)[C@H](O)[C@@H](NC(=O)c4ccccc4)c4ccccc4)C(C)=C1C3(C)C)[C@]1(OC(C)=O)CO[C@@H]1C[C@@H]2O` [Paclitaxel, paclitaxel, reference compound] the “TGI vs. Vehicle” value ([4]; paclitaxel 10 mg/kg ip Q4d) was 63% and the “TGI vs. Vehicle” value ([5]; paclitaxel 10 mg/kg ip Q4d) was 83%.
